Results as given in ChEMBL document CHEMBL1144629, “Synthesis and in vivo antihyperglycemic activity of nature-mimicking furanyl-2-pyranones in STZ-S model” (2007).

Key:
Assay type in all cases: functional
Parameters in all cases: scale not given: the % may be the effect or the level left
Rattus norvegicus [1] = assay: Antihyperglycemic activity in STZ-induced diabetic Sprague-Dawley rat assessed as decrease in blood glucose at 100 mg/kg, po after 120 mins relative to control
Rattus norvegicus [2] = assay: Antihyperglycemic activity in STZ-induced diabetic Sprague-Dawley rat assessed as decrease in blood glucose at 100 mg/kg, po after 5 hrs relative to control
Rattus norvegicus [3] = assay: Antihyperglycemic activity in STZ-induced diabetic Sprague-Dawley rat assessed as decrease in blood glucose at 100 mg/kg, po after 24 hrs relative to control
Rattus norvegicus [4] = assay: Antihyperglycemic activity in STZ-induced diabetic Sprague-Dawley rat assessed as decrease in blood glucose at 100 mg/kg, po after 240 mins relative to control
Rattus norvegicus [5] = assay: Antihyperglycemic activity in STZ-induced diabetic Sprague-Dawley rat assessed as decrease in blood glucose at 100 mg/kg, po after 90 mins relative to control
Rattus norvegicus [6] = assay: Antihyperglycemic activity in STZ-induced diabetic Sprague-Dawley rat assessed as decrease in blood glucose at 100 mg/kg, po after 180 mins relative to control
Rattus norvegicus [7] = assay: Antihyperglycemic activity in STZ-induced diabetic Sprague-Dawley rat assessed as decrease in blood glucose at 100 mg/kg, po after 30 mins relative to control
Rattus norvegicus [8] = assay: Antihyperglycemic activity in STZ-induced diabetic Sprague-Dawley rat assessed as decrease in blood glucose at 100 mg/kg, po after 60 mins relative to control

SMILES | Activity (Rattus norvegicus [1]) [%] | Activity (Rattus norvegicus [2]) [%] | Activity (Rattus norvegicus [3]) [%] | Activity (Rattus norvegicus [4]) [%] | Activity (Rattus norvegicus [5]) [%] | Activity (Rattus norvegicus [6]) [%] | Activity (Rattus norvegicus [7]) [%] | Activity (Rattus norvegicus [8]) [%]
CSc1cc(-c2ccco2)oc(=O)c1C#N | 19.8 | 6.8 | 6.7 | 2.3 | 19.6 | 8.1 | 11.8 | 16.5
Cc1cc(-c2cc(N3CCCC3)c(C#N)c(=O)o2)c(C)o1 | 20.9 | 4.5 | 10.5 | 1.2 | 20.9 | 7.8 | 12.5 | 17.3
Cc1cc(-c2cc(N3CCCCC3)c(C#N)c(=O)o2)c(C)o1 | 8.7 | 5.2 | 19.7 | 1 | 6.8 | 0.8 | 8.6 | 9.4
Cc1cc(-c2cc(N3CCOCC3)c(C#N)c(=O)o2)c(C)o1 | 29 | 20.3 | 29.7 | 20.7 | 24 | 18.5 | 16.6 | 18.4
Cc1cc(-c2cc(N3CCC(C)CC3)c(C#N)c(=O)o2)c(C)o1 | 16.8 | 5.5 | 4.2 | 2.8 | 20.9 | 2.6 | 12.5 | 16.3
CSc1cc(-c2cc(C)oc2C)oc(=O)c1C#N | 16.5 | 5.2 | 4.5 | 2.5 | 21.2 | 2.3 | 12.6 | 16.2
CSc1cc(-c2cc(C)oc2C)oc(=O)c1C(N)=O | 29.4 | 11.2 | 23.9 | 12.6 | 33 | 16.3 | 13.2 | 28.8
CSc1cc(-c2ccco2)oc(=O)c1C(N)=O | 8.9 | 5.52 | 19.3 | 1.3 | 6.3 | 1.2 | 8.5 | 9.6
N#Cc1c(N2CCOCC2)cc(-c2ccco2)oc1=O | 17.4 | 9.8 | 0.5 | 5.2 | 19.8 | 1.8 | 13.1 | 15.9
CN1CCN(c2cc(-c3ccco3)oc(=O)c2C#N)CC1 | 22.8 | 12.8 | 20 | 14.6 | 17.3 | 16.8 | 12.5 | 17.5
N#Cc1c(N2CCN(c3ccccc3)CC2)cc(-c2ccco2)oc1=O | 15.9 | 6.1 | 2.5 | 3.9 | 20.2 | 1.9 | 11.8 | 15.7
N#Cc1c(N2CCCCC2)cc(-c2ccco2)oc1=O | 21.3 | 4.8 | 10.4 | 1.4 | 21.1 | 7.5 | 12.8 | 17.5
CN(C)C(=N)NC(=N)N [METFORMIN] | 29.2 | 20.7 | 30 | 21.1 | 24.5 | 18.7 | 15.9 | 18.2
